Experimental data published in patent US20150140002A1, “USE OF A PCSK9 INHIBITOR TO TREAT […]” (Sanofi, priority 2013, published 2015).
Several values for one entry are separate records, joined by “and”; a condition that tells them apart may be missing. Equal values may be shown once.

Columns and labels:
[1] = test system: patients with hypercholesterolemia at moderate cardiovascular (CV) risk; assay: Example 2: Phase 3 monotherapy trial mAb316P versus ezetimibe, lipid parameters; assay type: in vivo, human; settings: for Lp(a) adjusted mean (SE) % change from baseline to week 24 / TGs adjusted mean (SE) % change from baseline to week 24: combined estimate; for LDL-C (on treatment), mean (SD): ezetimibe arm (n = 51); for LDL-C LS mean (SE) change from baseline (%): baseline to Week 24
Description: Randomization was stratified according to DM status. […] Patients were followed for 8 weeks after the last visit of the Double Blind Treatment Period (DBTP).
Double-blind treatment period (DBTP)—A randomized, double-blind double dummy study treatment period of 24 weeks. The first injection during the double-blind period was done at the site on the day of randomization (Week 0 [D1]-V3) and as soon as possible after the call to IVRS/IWRS for randomization into the study. The subsequent injections were done by the patient (self-injection) or another designated person (such as spouse, relative, etc.) at a patient-preferred location (home, etc.).
The primary efficacy endpoint was the percent change in calculated LDL-C from baseline to week 24, which is defined as: 100×(calculated LDL-C value at Week 24−calculated LDL-C value at baseline)/calculated LDL-C value at baseline.
Total-C, HDL-C, TG, Apo B, Apo A-1, and Lp (a) were directly measured. LDL-C was calculated using the Friedewald formula at all visits (except Week −1 and Follow Up visit). If TG values exceeded 400 mg/dL (4.52 mmol/L) then the central lab reflexively measured (via the beta quantification method) the LDL-C rather than calculating it. Non-HDL-C was calculated by subtracting HDL-C from the total-C. Ratio Apo B/Apo A-1 was calculated.
The primary endpoint was assessed in the intent-to-treat (ITT) population, which included all randomized patients who had at least 1 calculated LDL-C value at baseline and at one of the planned time points from weeks 4 to 24.
Missing data were accounted for by means of a mixed effect model with repeated measures (MMRM) approach (Siddiqui et al., MMRM vs. LOCF: a comprehensive comparison based on simulation study and 25 NDA datasets”, J Biopharm Stat, vol. 19, pp. 227-246 (2009); National Research Council, “The Prevention and Treatment of Missing Data in Clinical Trials” Panel on Handling Missing Data in Clinical Trials. Committee on National Statistics, Division of Behavioral and Social Sciences and Education. 2010. Washington, D.C.: The National Academies Press; Andersen et al., “On the practical application of mixed effects models for repeated measures to clinical trial data”, Pharm Stat., vol. 12, pp. 7-16 (2013)). For the ITT analysis, all available measurements at planned time points from weeks 4 to 24 (meaning week 4, 8, 12, 16, and 24), whatever their status on or off-treatment, were used in the MMRM. One MMRM model was used for LDL-C to provide least-squares means estimates and comparison between treatment arms at weeks 24 and 12. Further details on the model are given below. For the on-treatment analysis, all available on-treatment measurements (i.e. up to 21 days after last injection/3 days after last capsule, whichever comes first) at planned time points from weeks 4 to 24 were used in the MMRM model. In the same way as for the ITT analysis, one model was used to provide estimates and comparison at week 24 and week 12 for the on-treatment analysis. Continuous key secondary endpoints other than Lp(a) and triglycerides were analyzed in a similar fashion as the primary endpoint and description of the statistical methodology for secondary endpoints and subgroup analysis is provided below.
Outputs from the model were the baseline-adjusted least-squares (LS) mean estimates at week 24 for both treatment groups with their corresponding standard error (SE). Appropriate contrast statement was used to test the difference between these estimates at the 2-sided 5% alpha level.
To analyze the key secondary endpoints, a hierarchical procedure was used to control type I error and handle multiplicity. Secondary efficacy endpoints were tested sequentially using the order given above, in the intent-to-treat population.

[2] = test system: patients with hypercholesterolemia at moderate cardiovascular (CV) risk; settings: human, in vivo
Description: The clinical laboratory data consisted of urinalysis and blood analysis, hematology (RBC count, red blood cell distribution width (RDW), reticulocyte count, hemoglobin, hematocrit, platelets, WBC count with differential blood count), standard chemistry (glucose, sodium, potassium, chloride, bicarbonate, calcium, phosphorous, urea nitrogen, creatinine, uric acid, total protein, LDH, albumin, γ Glutamyl Transferase [γGT]), Hepatitis C antibody, liver panel (ALT, AST, ALP, and total bilirubin), and CPK.
Safety endpoints—Vital signs measurement: Vital signs included: HR, systolic and diastolic BP in sitting position.
The safety analysis included all randomized and treated patients. Safety data were analyzed by descriptive statistics.

[3] = test system: patients with genotype-confirmed hoFH; settings: ezetimibe 10 mg/day added to maximal dose of statins; cited from earlier work

O=C1[C@H](CC[C@H](O)c2ccc(F)cc2)[C@@H](c2ccc(O)cc2)N1c1ccc(F)cc1 [ezetimibe, reference compound]
Apo A-1 LS mean (SE) % change from baseline to week 24 ([1]; ITT): −0.6 (1.6) %
Apo B LS mean (SE) % change from baseline to week 24 ([1]; ITT): −11.0 (2.4) %
HDL-C LS mean (SE) % change from baseline to week 24 ([1]; ITT): 1.6 (1.9) %
Non-HDL-C LS mean (SE) % change from baseline to week 24 ([1]; ITT): −15.1 (2.9) %
Total cholesterol LS mean (SE) % change from baseline to week 24 ([1]; ITT): −10.9 (2.2) %
Lp(a) adjusted mean (SE) % change from baseline to week 24 ([1]; ITT): −12.3 (3.8) %
TGs adjusted mean (SE) % change from baseline to week 24 ([1]; ITT): −10.8 (4.3) %
LDL-C LS mean (SE) Week 24 change from baseline (%) ([1]; ITT, excluding post up-titration data from patients up-titrated having LDL-C <100 mg/dL): −15.6%
LS mean (SE) percent reductions in LDL-C from baseline to week 24 ([1]; ITT, given as reduction): 16 (3) %
LDL-C reduction at week 12 ([1]; ITT, mAb316P 75 mg Q2W before up-titration, ezetimibe 10 mg daily): 20 (3) % and 20%
Apo A-1 LS mean (SE) % change from baseline to week 24 ([1]; On-treatment): −0.7 (1.6) %
Apo B LS mean (SE) % change from baseline to week 24 ([1]; On-treatment): −11.5 (1.9) %
HDL-C LS mean (SE) % change from baseline to week 24 ([1]; On-treatment): 1.7 (1.9) %
Non-HDL-C LS mean (SE) % change from baseline to week 24 ([1]; On-treatment): −16.6 (1.9) %
Total cholesterol LS mean (SE) % change from baseline to week 24 ([1]; On-treatment): −12.0 (1.6) %
Lp(a) adjusted mean (SE) % change from baseline to week 24 ([1]; On-treatment): −12.3 (4.0) %
TGs adjusted mean (SE) % change from baseline to week 24 ([1]; On-treatment): −12.7 (4.2) %
LDL-C (on treatment), mean (SD) ([1]; Week 4): 109.9 (22.4) mg/dL
LDL-C (on treatment), mean (SD) ([1]; Week 12): 109.8 (25.2) mg/dL
LDL-C (on treatment), mean (SD) ([1]; Week 24): 113.4 (25.0) mg/dL
LDL-C LS mean (SE) change from baseline (%) ([1]; ITT): −15.6%
LDL-C LS mean (SE) change from baseline (%) ([1]; On-treatment): −17.2%
estimated proportions of patients with LDL-C reductions ≧50% at week 12 ([1]; before up-titration, ITT): 3%
proportions of patients with LDL-C reductions ≧50% at week 12 ([1]; before up-titration, on-treatment analysis): 2%
reduction in Lp(a) ([1]; current study, discussion): 12%
LS mean (SE) LDL-C reductions from baseline to week 24 ([1]; on-treatment analysis, given as reduction): 17 (2) %
LDL-C reduction at week 12 ([1]; on-treatment analysis, mAb316P 75 mg Q2W): 20 (2) % and 20%
reduction in LDL-C at 12 weeks ([1]; summary, mAb316P 75mg Q2W arm, monotherapy population): 20%
Influenza [2]: 3 (5.9) n (%)
total reduction of LDL-C levels [3]: 27%
